Converted amounts (≈) assume the structure as drawn.
Columns and labels:
cells [1] = conditions: cited from earlier work
[2] = system: vascular endothelial cell; conditions: cited from earlier work
[3] = system: tumor growth and metastases; conditions: cited from earlier work
[4] = system: corneal neovascularization (corneal micropockets); assay: neovascularization experiment using corneal micropockets in mice; type: in vivo; conditions: mouse corneal micropockets; Table 1
Description: (§1) Pellets for implantation into rabbit corneas were made by mixing 110 μl of saline containing 12 μg of recombinant bFGF (Takeda Pharmaceuticals-Japan) with 40 mg of sucralfate (Bukh Meditec-Denmark); this suspension was added to 80 μl of 12% hydron (Interferon Sciences) in ethanol. 10 μl aliquots of this mixture was then pipetted onto teflon pegs and allowed to dry producing approximately 17 pellets. A pellet was implanted into corneal micropockets of each eye of an anesthetized female New Zealand white rabbit, 2 mm from the limbus followed by topical application of erythromycin ointment onto the surface of the cornea. The animals were fed daily from 2 days post-implantation by gastric lavage with cytochalasin E or the aldehyde methyl ester derivative of cytochalasin E suspended in 0.5% carboxymethyl cellulose or 0.5% carboxymethyl cellulose alone. The animals were examined with a slit lamp every other day in a masked manner by the same corneal specialist. The area of corneal neovascularization was determined by measuring with a reticule the vessel length (L) from the limbus and the number of clock hours (C) of limbus involved. A formula was used to determine the area of a circular band segment: C/12*3.1416 [r^2 -(r-L)^2 ] where r=6 mm the measured radius of the rabbit cornea.
(§2) The neovascularization experiment described in Example 2 was repeated using the corneal micropockets in mice. The compounds tested were cytochalasin E, astaphiatin, arglabin, epoxycytochalasin-H, ozonolyzed cytochalasin-E, and precursor cytochalasin-E. The results of these compound's ability to inhibit angiogenesis are shown in Table 1.

[5] = type: in vivo; conditions: mice; Table 1
Description: as §2

[6] = system: Bovine capillary endothelial (BCE) cells; assay: inhibition of bovine capillary endothelial cell proliferation (BCE), compared to NIH3T3 fibroblasts; type: cell-based; conditions: for less active (inhibition of endothelial cell proliferation): relative to cytochalasin E
Description: (§3) Bovine capillary endothelial (BCE) cells and Swiss mouse embryo fibroblast cells (NIH3T3) were isolated as previously described (Folkman, , et al., Proc. Nat. Acad. Sci USA., 76:5217-21(1979)) and maintained in DMEM supplemented with 10% heat-inactivated bovine calf serum (BCS), antibiotics, and 3 ng/ml recombinant human bFGF (Scios Nova, Mountainview,Calif.). Monolayers of the cells growing in 6-well plates were dispersed in a 0.05% trypsin solution. The cells were re-suspended with DMEM containing 10% BCS. Approximately 12,500 cells in 0.5 ml were added to each well of gelatinized 24-well tissue culture plates and incubated at 37° C. (in 10% CO2) for 24 hours. The medium was replaced with […] of fresh DMEM containing 5% BCS. Samples of cytochalasin E, cytochalasin A, and cytochalasin H were added to each well in triplicate. After 30 minutes of incubation, bFGF was added to a final concentration of 1 ng/ml. After 72 hours of incubation, cells were trypsinized, re-suspended in Hematall (Fisher Scientific, Pittsburg, Pa.) and counted with a Coulter counter.
FIG. 2 is a graph showing the inhibition of bovine capillary endothelial cell proliferation (BCE) (squares) compared to Swiss mouse embryo fibroblast cells (NIH3T3). […] The ordinate measures drug concentration in grams per milliliter.

[7] = system: basic fibroblast growth factor (bFGF) driven corneal neovascularization; assay: rabbit cornea assay, bFGF driven corneal neovascularization; type: in vivo, rabbit (New Zealand white); conditions: 2 mg/kg/day, text says subcutaneously administered (method: gastric lavage)
Description: as §1

Lewis lung carcinoma [8] = assay: Lewis lung experiment, inhibition of tumor growth (Example 6); type: in vivo, mice (C57BI6/J); conditions: 2.0 mg/kg qd (printed 'od' for methanolyzed compound)
Description: (§4) Syngeneic C57BI6/J six-week-old male mice were injected (subcutaneous dorsum) with 1×10^6 tumor cells. Visible tumors first appeared after 3-4 days. When tumors were approximately 1500 mm^3 in size, mice were randomized into two groups. The primary tumor was completely excised in the first group and left intact in the second group after a sham operation. Although tumors from 500 mm^3 to 3000 mm^3 inhibited growth of metastases, 1500 mm^3 was the largest primary tumor that could be safely resected with high survival and no local recurrence.
The Lewis lung experiment of Example 5 was repeated using cytochalasin E and methanolyzed cytochalasin E. The results of this experiment are presented in the table below.

Lewis lung carcinoma [9] = assay: Lewis lung carcinoma tumor growth (Example 5); type: in vivo, mice (C57BI6/J); conditions: 2 mg/kg/day
Description: as §4
This experimental model gave reproducible data and the experiment described is reproducible. This tumor is labeled "Lewis lung carcinoma--low metastatic" (LLC-Low).

cells [10] = conditions: cited from earlier work; remark: listed apart in the source
[11] = system: Bovine capillary endothelial (BCE) cells; assay: inhibition of bovine capillary endothelial cell proliferation (BCE), cytochalasin E vs epoxycytochalasin J; type: cell-based; conditions: compared with cytochalasin E; FIG. 3
Description: as §3, with “(BCE)” for “(BCE) cells and Swiss mouse embryo fibroblast cells (NIH3T3)”, “76:5217-21 (1979))” for “76:5217-21(1979))”, “Mountainview, Calif.).” for “Mountainview,Calif.).”, “E” for “E, cytochalasin A,”, “epoxycytochalasin J” for “cytochalasin H”
The ordinate measures drug concentration in grams per milliliter.

tumors cells = conditions: cited from earlier work
[12] = system: tumor-induced angiogenesis in mouse dermis; conditions: cited from earlier work

C=C1C(C)C2C(Cc3ccccc3)NC(=O)C23OC(=O)/C=C/C(O)CCCC(C)C/C=C/C3C1O (single isomer, unassigned) [cytochalasin B]
changes in cell structure (cells [1]): a number of morphological changes in cell structure

CO[C@@H]1[C@H](OC(=O)NC(=O)CCl)CC[C@]2(CO2)[C@H]1[C@@]1(C)O[C@@H]1CC=C(C)C [AGM-1470]
activity in inhibiting tumor cell proliferation in vitro ([2]; compared with inhibition in vivo): much less active
half-maximal inhibition of vascular endothelial cell proliferation at lower concentration than tumor cell proliferation ([2]; endothelial vs tumor cell proliferation): 4 logs
inhibition of tumor growth and metastases in vivo [3]: inhibits tumor growth and metastases in vivo

C=C1C(=O)O[C@@H]2[C@H]3C(C)=CC[C@@]34O[C@@]4(C)CC[C@@H]12 [Arglabin]
% Inhibition (ability to inhibit angiogenesis) [4]: 22.72%
% Weight Loss [5]: 2.69%

C=C1C(=O)OC2C1CCC(=C)C1CC3OC3(C)C12 (stereo not drawn) [Astaphiatin]
% Inhibition (ability to inhibit angiogenesis) [4]: 33.56%
% Weight Loss [5]: 6.92%

CC(=O)O[C@@H]1/C=C/[C@](C)(O)C[C@@H](C)C/C=C/[C@H]2[C@@H]3O[C@]3(C)[C@@H](C)[C@H]3[C@H](Cc4ccccc4)NC(=O)[C@@]312 [Epoxycytochalasin-H]
% Inhibition (ability to inhibit angiogenesis) [4]: 27.35%
% Weight Loss [5]: 2.46%

CC1C2C(Cc3ccccc3)NC(=O)C2(O)C(CO)C2OC12C (stereo not drawn) [Ozonolyzed Cytochalasin-E]
% Inhibition (ability to inhibit angiogenesis) [4]: 20.00%
% Weight Loss [5]: 4.00%

C=C1C(C)C2C(Cc3ccccc3)NC(=O)C23OC(=O)/C=C/C(=O)CCCC(C)C/C=C/C3C1O (stereo not drawn) [cytochalasin A]
less active (inhibition of endothelial cell proliferation) [6]: 1000 fold

CC1C/C=C/C2C3OC3(C)C(C)C3C(Cc4ccccc4)NC(=O)C23OC(=O)O/C=C/C(C)(O)C1=O [cytochalasin E, (6S,7S,16R,18R)-6,7-epoxy-18-hydroxy-16-methyl-10-phenyl-21 ,23-dioxa-[13]cytochalasa-13(E), 19(E)-diene-1,17,22-trione]
inhibition of bFGF driven corneal neovascularization [7]: 50%
IC50 ([6]; Bos taurus, Endothelial cell, bFGF 1 ng/ml, 72 hours): 0.002 ng/mL (≈ 0.00404 nM)
Inhibition of Tumor Growth, T/C (Lewis lung carcinoma [8]): 0.28
inhibited tumor growth (Lewis lung carcinoma [9]): 74%
% Inhibition (ability to inhibit angiogenesis) [4]: 45.00%
% Weight Loss [5]: 0.00%

C=C1C(C)C2C(Cc3ccccc3)NC(=O)C23C(OC(C)=O)/C=C/C(C)(O)CC(C)C/C=C/C3C1O (stereo not drawn) [cytochalasin H]
less active (inhibition of endothelial cell proliferation) [6]: 1000 fold
disaggregation of cells (cells [10]): produces disaggregation of cells

C[C@H]1C/C=C/[C@H]2[C@@H]3O[C@]3(C)[C@@H](C)[C@@H]3[C@H](Cc4ccccc4)NC(=O)[C@]32[C@H](O)/C=C/[C@](C)(O)C1 [epoxycytochalasin J]
effectiveness as inhibitor of bovine capillary endothelial cell proliferation [11]: even more effective inhibitor

bFGF: basic fibroblast growth factor (bFGF)
mitogen for the tumor cells in vitro (tumors cells): not a mitogen

interferon alpha
inhibition of tumor-induced angiogenesis [12]: inhibit tumor-induced angiogenesis

Source: patent US6242481A, “Methods for the inhibition of angiogenesis with arglabin” (priority 1999, dated 2001)
